Read-outs that look alike come from different tables or passages of the source. *1 amine or outer side, *2 acyl side, *3 side chain or, on linkers, in order; H or OH if unused. Where a SMILES comes first, the peptide text is derived from it. Bridges are numbered along the chain shown (N, C = ends). [ ]: non-standard residue; d: D form. The star is where a group is joined. Leu(3R-O(AcLeu(3R-OH))) = CC(=O)N[C@H](C(=O)O[C@H](C(C)C)[C@H](N)C(=O)O)[C@H](O)C(C)C; Leu(3R-OH,Nα-propionyl) = CCC(=O)N[C@H](C(=O)*)[C@H](O)C(C)C; X1 = CC(C)[C@@H](O[*:3])[C@H](N[*:1])C(=O)[*:2]; NMeT = CN[C@H](C(=O)O)[C@@H](C)O; dPhLac = O=C(O)[C@H](O)Cc1ccccc1; NMeA = CN[C@@H](C)C(=O)O; NMeDha = C=C(NC)C(=O)O
Columns and labels:
[1] = test system: Gq signalling via recombinantly expressed human P2Y1 receptor; experiment: Calcium mobilization assay, ADP-induced (P2Y1 receptor) in 1321N1 astrocytoma cells; assay type: cell-based; details: Homo sapiens; versus ADP (EC80), P2Y1 receptor, 1321N1 astrocytoma cells; read-out: pIC50, inhibition of calcium mobilization (converted)
Procedure: The functional activity of YM, FR, and Ebselen as Gq protein inhibitors was determined by assessing their ability to antagonize ADP‐induced calcium mobilization in 1321N1 astrocytoma cells stably transfected with the human P2Y1 receptor, which is a Gq‐coupled receptor. In addition, the compounds' inhibitory effects on Carbachol‐induced calcium mobilization were studied in the same cell line, which endogenously express the Gq‐coupled muscarinic M3 ACh receptor. The assays were performed according to a previously described procedure (Rafehi et al., 2017) using a NOVOstar microplate reader (BMG Labtech, Offenburg, Germany).

mouse Gαq = target: T1, mouse Gαq (Mus musculus, UniProt P21279, D130A/E125D/N126V/V129Y/Y128D); experiment: Competition binding at membranes of HEK-CRISPR-Cas9-Gαq-KO cells expressing Gαq
T1 construct: expressed in transfected cells; membrane preparations
T1 sequence (P21279 1-359 E125D/N126V/Y128D/V129Y/D130A): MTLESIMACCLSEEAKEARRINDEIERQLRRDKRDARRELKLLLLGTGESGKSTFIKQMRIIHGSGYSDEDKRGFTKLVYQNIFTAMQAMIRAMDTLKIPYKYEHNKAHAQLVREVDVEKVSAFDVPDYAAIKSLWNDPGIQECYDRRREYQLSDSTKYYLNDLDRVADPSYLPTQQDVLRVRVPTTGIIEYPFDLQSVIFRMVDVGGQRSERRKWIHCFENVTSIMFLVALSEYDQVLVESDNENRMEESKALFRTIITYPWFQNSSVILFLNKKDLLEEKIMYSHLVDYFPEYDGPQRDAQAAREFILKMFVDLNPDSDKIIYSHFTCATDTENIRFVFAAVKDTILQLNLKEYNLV
Procedure: (§1) cDNAs encoding for the α‐subunits of the human G11, G14, G15 and mouse Gq guanine nucleotide‐binding proteins in a pcDNA3.1(+) vector were obtained from E. Kostenis. CRISPR/Cas9‐Gαq‐knockout (KO) HEK293 cells were from M. Yamaguchi. The protein sequences of the human and mouse Gαq proteins differ only by one amino acid in position 171 (alanine in human and serine in mouse). […]. After 16 hr, 3 ml of DMEM containing 10% FBS, 1% of a penicillin/streptomycin solution (final concentrations: penicillin = 100 U·ml^−1, streptomycin = 0.1 mg·ml^−1), and sodium butyrate (5 mM) was added to the packaging cells. They were kept at 32°C and 5% CO2 for 48 hr, during which the viral vectors containing the receptor sequence were produced and released into the surrounding medium. These were harvested, filtered ([…] filter pore diameter), and added to HEK293 cells that had previously been modified via CRISPR/Cas9 genome editing to lack Gαq expression. Polybrene solution (6 μl, 4 mg·ml^−1 in H2O, filtered) was added. After 2.5 hr, the virus‐containing medium was discarded, and DMEM supplemented with 10% FBS and 1% of a penicillin/streptomycin solution (final concentrations: penicillin = 100 U·ml^−1, streptomycin = 0.1 mg·ml^−1) was given to the cells. These were incubated for 2 days, followed by selection of successfully transfected cells with geneticin resistance by adding G418 (200 μg·ml^−1) to the medium. The cells were cultured in these media at 37°C and 10% CO2 until membrane preparations were generated.
(§2) Recombinant HEK cells were cultured to 70% of confluence. The culture medium was discarded, and cells were washed once with approximately 5 ml of PBS. Dishes were stored at −20°C until further use. After defrosting, cells were detached with a rubber scraper after adding 5‐mM Tris–HCl, 2‐mM EDTA, pH 7.4. The collected cell suspension was homogenized using an Ultra‐Turrax® for 1 min at a speed level of 4. The cell suspension was transferred into tubes and centrifuged for 10 min at 1,000 g, 4°C. The pellet (P1) was discarded, and the supernatant was centrifuged for 45 min at 48,400 g, 4°C. The resulting supernatant was discarded, and the pellet (P2) was resuspended in 50‐mM Tris–HCl, pH 7.4, and centrifuged again for 45 min at 48,400 g, 4°C. This step was repeated once again, and the suspension was subsequently homogenized using an Ultra‐Turrax® for 1 min at a speed level of 4 (IKA Laborechnik), transferred into cryovials, and stored at −80°C (for up to several months). […]
(§3) The experiments were performed in 50‐mM Tris–HCl buffer, pH 7.4. […] Non‐specific binding was determined in the presence of 5‐μM FR. […] Luma Safe® scintillation cocktail (2.5 ml) was added, and after 6 hr of incubation, the samples were counted for 1 min each, using a liquid scintillation counter (counting efficiency 53%). […]

human Gα11 = target: T2, human Gα11 (Homo sapiens, UniProt P29992); experiment: Competition binding at membranes of HEK-CRISPR-Cas9-Gαq-KO cells expressing Gα11
T2 construct: expressed in transfected cells; membrane preparations
T2 sequence (P29992 1-359): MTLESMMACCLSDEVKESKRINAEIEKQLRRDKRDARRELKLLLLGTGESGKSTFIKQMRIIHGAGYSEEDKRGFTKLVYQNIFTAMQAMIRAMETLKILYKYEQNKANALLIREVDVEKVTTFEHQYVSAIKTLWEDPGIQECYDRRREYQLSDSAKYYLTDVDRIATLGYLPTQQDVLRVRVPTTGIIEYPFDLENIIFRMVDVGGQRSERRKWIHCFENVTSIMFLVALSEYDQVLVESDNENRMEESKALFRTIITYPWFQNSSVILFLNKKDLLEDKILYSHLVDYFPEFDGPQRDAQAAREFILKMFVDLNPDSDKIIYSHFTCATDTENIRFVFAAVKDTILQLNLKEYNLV
Procedure: as §1, §2, §3

Compound	IC50 [1] [nM]	IC50 (mouse Gαq) [nM]	Pseudo-Bmax ± SD (mouse Gαq; FR versus [³H]PSB-15900 (5 nM), 37°C, Gq) [pmol/mg]	IC50 (human Gα11) [nM]	Pseudo-Bmax ± SD (human Gα11; FR versus [³H]PSB-15900 (5 nM), 37°C, G11) [pmol/mg]	Pseudo-Bmax ± SD (mouse Gαq; YM versus [³H]PSB-16254 (5 nM), 37°C, Gq) [pmol/mg]	IC50 (mouse Gαq; YM versus [³H]PSB-16254 (5 nM), 37°C, Gq, read-out: pIC50 ± SD (converted)) [nM]	Pseudo-Bmax ± SD (human Gα11; YM versus [³H]PSB-16254 (5 nM), 37°C, G11) [pmol/mg]	IC50 (human Gα11; YM versus [³H]PSB-16254 (5 nM), 37°C, G11, read-out: pIC50 ± SD (converted)) [nM]
C=C1C(=O)N[C@@H](C)C(=O)N(C)[C@@H](C)C(=O)N[C@@H]([C@H](OC(=O)[C@@H](NC(=O)CC)[C@H](O)C(C)C)C(C)C)C(=O)N(C)[C@@H]([C@@H](C)OC)C(=O)O[C@H](C(C)C)[C@H](NC(C)=O)C(=O)O[C@H](Cc2ccccc2)C(=O)N1C [FR, FR900359] (Ac-[X1][dPhLac][NMeDha]A[NMeA][X1](Leu(3R-OH,Nα-propionyl))[NMeT](Me); ester 1-C)	0.692	13.2	6.09 ± 0.59	10.5	6.23 ± 1.39				
C=C1C(=O)N[C@@H](C)C(=O)N(C)[C@@H](C)C(=O)N[C@@H]([C@H](OC(=O)[C@@H](NC(C)=O)[C@H](O)C(C)C)C(C)C)C(=O)N(C)[C@@H]([C@@H](C)OC)C(=O)O[C@H](C)[C@H](NC(C)=O)C(=O)O[C@H](Cc2ccccc2)C(=O)N1C [YM, YM‐254890] (Ac-T[dPhLac][NMeDha]A[NMeA][Leu(3R-O(AcLeu(3R-OH)))][NMeT](Me); ester 1-C)	0.955					6.04 ± 1.43	6.17	6.23 ± 2.92	8.71

Reference: publication PMC7070167, “Cell‐permeable high‐affinity tracers for Gq proteins provide structural insights, reveal distinct binding kinetics and identify small molecule inhibitors” (British Journal of Pharmacology, 2020)
